Measurements: BindingDB's records for doi:10.1021/jm0503087 (Conforma Therapeutics, 2006)

Molecular target: Heat shock protein HSP 90-beta (Homo sapiens, UniProt P08238)
Test: Her-2 Degradation Assay
Conditions: pH 7.2; 37 °C
Experimental: A fluorescence histogram was generated, and the mean fluorescence intensity (MFI) of each sample was determined using Cellquest software.

Heat shock protein HSP 90-beta, sequence (P08238 whole entry): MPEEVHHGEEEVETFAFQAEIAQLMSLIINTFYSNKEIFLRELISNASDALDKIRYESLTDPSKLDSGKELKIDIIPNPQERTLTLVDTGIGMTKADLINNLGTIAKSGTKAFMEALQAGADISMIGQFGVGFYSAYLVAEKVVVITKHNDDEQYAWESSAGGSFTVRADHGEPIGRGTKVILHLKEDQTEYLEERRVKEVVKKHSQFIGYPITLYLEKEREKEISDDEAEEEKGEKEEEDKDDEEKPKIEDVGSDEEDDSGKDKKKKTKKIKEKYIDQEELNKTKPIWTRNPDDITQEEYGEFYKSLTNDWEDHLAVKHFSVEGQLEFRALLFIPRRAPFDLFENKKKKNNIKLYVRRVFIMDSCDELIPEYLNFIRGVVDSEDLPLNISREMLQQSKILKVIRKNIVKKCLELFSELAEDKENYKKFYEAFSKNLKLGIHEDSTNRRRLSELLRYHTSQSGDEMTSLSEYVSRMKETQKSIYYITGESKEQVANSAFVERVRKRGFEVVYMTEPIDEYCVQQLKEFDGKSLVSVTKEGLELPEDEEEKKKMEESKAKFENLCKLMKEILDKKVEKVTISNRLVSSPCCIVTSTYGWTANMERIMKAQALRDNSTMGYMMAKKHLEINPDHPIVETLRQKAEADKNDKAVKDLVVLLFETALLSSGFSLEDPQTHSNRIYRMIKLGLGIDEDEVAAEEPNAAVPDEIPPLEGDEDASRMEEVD

In the case of `COc1ccc(I)c(Sc2nc3c(N)ncnc3n2CCCNC(C)(C)C)c1`, the EC50 is reported as 140 nM.

For `C#CCCCn1c(Sc2cc(OC)ccc2I)nc2c(N)nc(F)nc21` [2-fluoro-8-[(2-iodo-5-methoxyphenyl)sulfanyl]-9-(pent-4-yn-1-yl)-9H-purin-6-amine], the EC50 was 360 nM.

In the case of `CCCCn1c(Cc2cc(OC)ccc2Br)nc2c(N)ncnc21` [8-[(2-bromo-5-methoxyphenyl)methyl]-9-butyl-9H-purin-6-amine], the EC50 is reported as 8000 nM.

`COc1ccc(I)c(Sc2nc3c(N)ncnc3n2CCC=C(C)C)c1` [8-[(2-iodo-5-methoxyphenyl)sulfanyl]-9-(4-methylpent-3-en-1-yl)-9H-purin-6-amine] was tested, and the EC50 was 370 nM.

With `CCC(CC)NCCCn1c(Sc2cc(OC)ccc2I)nc2c(N)ncnc21` [8-[(2-iodo-5-methoxyphenyl)sulfanyl]-9-[3-(pentan-3-ylamino)propyl]-9H-purin-6-amine] the EC50 was 210 nM.

`COc1ccc(I)c(Sc2nc3c(N)ncnc3n2CCCNC(C)C)c1` [8-[(2-iodo-5-methoxyphenyl)sulfanyl]-9-[3-(propan-2-ylamino)propyl]-9H-purin-6-amine] showed an EC50 of 180 nM.

With `COc1ccc(I)c(Sc2nc3c(N)ncnc3n2CCNCC(C)C)c1` [8-[(2-iodo-5-methoxyphenyl)sulfanyl]-9-{2-[(2-methylpropyl)amino]ethyl}-9H-purin-6-amine] the EC50 was 100 nM.

With `CCC(C)NCCCn1c(Sc2cc(OC)ccc2I)nc2c(N)ncnc21` (configuration not stated) [9-[3-(butan-2-ylamino)propyl]-8-[(2-iodo-5-methoxyphenyl)sulfanyl]-9H-purin-6-amine] the EC50 was 210 nM.

With `CCCCn1c(Sc2cc(OC)ccc2OC)nc2c(N)ncnc21` [9-butyl-8-[(2,5-dimethoxyphenyl)sulfanyl]-9H-purin-6-amine] the EC50 was 3500 nM.

In the case of `CCCCn1c(Cc2cc(OC)ccc2Cl)nc2c(N)ncnc21` [9-butyl-8-[(2-chloro-5-methoxyphenyl)methyl]-9H-purin-6-amine], the EC50 is reported as 20000 nM.

Compound `CCCCn1c(Cc2cc(OC)ccc2I)nc2c(N)ncnc21` [9-butyl-8-[(2-iodo-5-methoxyphenyl)methyl]-9H-purin-6-amine] has an EC50 of 5000 nM.

Compound `CCCCn1c(Cc2cc(OC)ccc2OC)nc2c(N)ncnc21` [PU7] has an EC50 of 12000 nM.
